Literature values in patent publication US8198326B2, “Phenolic antiseptic compositions and methods of use” (3M Innovative Properties Company, priority 2004, dated 2012).

Tested on: methicillin resistant staphylococcus aureus
Conditions: reaction of free iodine with the organic load

povidone-iodine
decrease of activity on addition of nasal secretions: 80-90%
